Measured values published in PMC4706618, “Comparison of bactericidal and cytotoxic activities of trichogin analogs” (Data in Brief, 2015).
≈ marks a conversion by molar mass, not a printed value. Read-outs that look alike come from different tables or passages of the source. Non-standard residues stand in square brackets, D forms with d. Residues, ends and D or L forms follow the SMILES beside them. *: point of attachment. Leu(ol) = CC(C)C[C@H](N)CO; Octanoyl = CCCCCCCC(=O)*; Aib = CC(C)(N)C(=O)O

Columns and labels:
[1] = system: S. aureus, ATCC BAA-44 (methicillin-resistant strain); format: cell-based, Staphylococcus aureus; conditions: after 24 h at 37 °C, broth microdilution in LB, 5×10^5 CFU/ml; ±SE, N≥4; peptide dose range 0–64 µM
Experimental: (§1) E. coli ATCC 25922, the methicillin-resistant strain of S. aureus, ATCC BAA-44, P. aeruginosa ATCC 25668 and S. epidermidis ATCC 700565 was a kind gift of Prof. Elena Reddi (Dept. of Biology, University of Padova, Italy). Cultures were maintained in Luria Bertani (LB) agar. MICs (Minimal inhibitory concentrations) of the peptides were determined using the broth microdilution method. Two-fold serial dilutions of each peptide, from 1 to 64 μM, were prepared in LB and 50 μl per well were arranged in sterile 96-well plates (Falcon). Then, an aliquot of bacterial cell suspension was added to each well, at a final concentration of 5×10^5 CFU/ml.

[2] = system: human cells (lymphocytes, PMNs, monocytes, HL60, HeLa, A431, A549, CCD34Lu); assay: Cytotoxicity on human cells, MTS reduction and LDH release; format: cell-based; conditions: 24 h, MTS/LDH EC50, all tested cells; in words
Experimental: To monitor the possible differential cytocidal effect of trichogin and its analogs on human cells (healthy and cancer cells, non-leukocytes and leukocytes), we incubated the peptides with (i) primary human leukocytes (lymphocytes, PMNs and monocytes), freshly isolated from blood of healthy donors (ii) the monocytes-like HL60 cell line from human myeloid leukemia, and (iii) three tumor-derived non-leukocyte cells lines: HeLa ([…]), A431 (human epidermoid carcinoma) and A549 (human lung carcinoma) and the in vitro stabilized line CCD34Lu (from human normal lung).
HeLa, A431 and CCD34-Lu cells were maintained in DMEM medium (Gibco), A549 in F12 medium (Gibco) and HL60 in RPMI medium (Gibco), supplemented with 10% FCS (Euroclone) and antibiotics (penicillin and streptomycin, 100 U/ml, Invitrogen) at 37 °C in a humidified atmosphere containing 5% (v/v) CO2; cells were split every 2–3 days. Human monocytes, polymorphonuclear leukocytes (PMNs) and lymphocytes were purified from buffy coats of healthy donors, kindly provided by the Centro Immunotrasfusionale, Hospital of Padova. Briefly, for monocyte purification, peripheral blood mononuclear cells (PBMC) were isolated from buffy coats of healthy donors by density gradient centrifugation on Ficoll-Paque Plus (GE Health care), which density is optimized for the isolation of mononuclear cells. Separate monocyte and T-cell fractions were obtained from PBMCs by Percoll density gradient centrifugation (GE Health care); residual lymphocytes were removed by incubation in 2% fetal calf serum (FCS) RPMI at 37 °C and subsequently washed to eliminate non adherent cells. Unless otherwise specified, cells were kept at 37 °C in a humidified atmosphere containing 5% (v/v) CO2 in RPMI-1640 supplemented with 10% FCS. For PMNs purification, the pellet of cells obtained after the centrifugation on Ficoll gradient was subjected to dextran erythrocytes precipitation; residual erythrocytes were removed by hypotonic lysis in 155 mM NH4Cl, 10 mM KHCO3, and […] Na2EDTA at pH 7.4 and cells were cultured in RPMI medium, supplemented with 10% FCS. For lymphocytes preparation, buffy coats were incubated with 50 μl/ml of Rosette Sep® Human T Cell Enrichment Cocktail (StemCell Technologies). Blood was then centrifuged over a Ficoll gradient and cells were cultured in RPMI medium, supplemented with 10% FCS.
(§2) Twenty-four hours before the experiment, A431, HeLa, A549 and CC34-Lu cells were detached by means of trypsin treatment (Gibco), counted and seeded onto a 96 wells/plate (8×10^3 cells/well, Falcon). After purification, monocytes were seeded onto a 96 wells/plate (2×10^6/well) and left to adhere to the plastic; then cells were immediately treated with stimuli. PMNs and lymphocytes (2×10^6 cells/well) and HL60 cells (40×10^3) were seeded onto cell plates and subsequently treated. Different peptides were diluted in culture medium (from 20 μM to 1 μM) and added to the cells. As a […] control cells were treated with medium without stimuli. Twenty-four hours after treatment, the cell supernatant was collected for subsequent assay (LDH assay) and cells were tested using a CellTiter 96® AQueous One Solution Reagent (Promega). Plates were read with an ELISA reader (Amersham Biosciences) at 492 nm. Data were expressed as % of absorbance value compared to untreated cells (assumed as 100% viable). Alternatively, the EC50 (the concentration of drug where 50% of cells died) was calculated for each peptide and each kind of tested cell.
(§3) 50 μl of the cell supernatant was tested with a CytoTox 96® Non-Radioactive Cytotoxicity Assay kit (Promega). EC50 (the concentration of drug that induced the lysis of 50% of the total cell number) was calculated for each peptide and each kind of tested cell.

HeLa cells [3] = assay: Propidium iodide / Annexin V assay (FACS); format: cell-based, human; conditions: 18 h treatment, up to 20 μM, in words
Experimental: HeLa cells were seeded on 24-wells plastic trays (Falcon) the day before the experiment, while HL60 were used directly. Cells were treated for 18 h with different trichogin analogs (up to 20 μM); then they were washed with PBS, detached with trypsin (in the case of HeLa cells), centrifuged at 200g for 5 min, suspended in 50 μl of incubation buffer and incubated for 15 min at 37 °C with 2 μl of Annexin-V-Fluos (Roche). Cells were finally diluted in 250 μl of the incubation buffer and 15 μl of Propidium Iodide (Sigma) were added to each sample just before the acquisition with FACSCanto® (Beckton Dickinson). Percentage of healthy (Annexin V^−/PI^−), apoptotic (Annexin V^+/PI^−), oncotic (Annexin V^−/PI^+) and late apoptotic/abortive oncotic (Annexin V^+/PI^+) cells of the total (10^6 cells) was calculated using FACSDiva Software.

[4] = system: S. epidermidis ATCC 700565; format: cell-based, Staphylococcus epidermidis; conditions: after 24 h at 37 °C, broth microdilution in LB, 5×10^5 CFU/ml; ±SE, N≥4; peptide dose range 0–64 µM
Experimental: as §1

E. coli ATCC 25922 [5] = format: cell-based, Escherichia coli; conditions: after 24 h at 37 °C, broth microdilution in LB, 5×10^5 CFU/ml; ±SE, N≥4; peptide dose range 0–64 µM
Experimental: as §1

P. aeruginosa ATCC 25668 [6] = format: cell-based, Pseudomonas aeruginosa; conditions: after 24 h at 37 °C, broth microdilution in LB, 5×10^5 CFU/ml; ±SE, N≥4; peptide dose range 0–64 µM
Experimental: as §1

[7] = system: Gram^− and Gram^+ bacteria; conditions: both Gram^− and Gram^+ bacteria; ref Tavano et al., 2015 [6]; cited from earlier work
Text: (§4) Peptaibiotics are a group of membrane active peptides of fungal origin. They typically contain α-aminoisobutyric acid (Aib; 1-letter code, U) and other non-coded residues (Toniolo and Brückner, 2009; Neumann et al., 2015; Benedett et al., 1982), [2], [3] stabilizing their helical structure. Peptaibols are peptaibiotics carrying a 1, 2-aminoalcohol at the C-terminus. When a fatty acid chain (of 8–10 carbon atoms) is present at their N-terminus, they are called lipopeptaibols (Toniolo et al., 2001; Degenkolb et al., 2003), [5]. We found (Tavano et al., 2015) that the lipo ...

[8] = system: human cells (lymphocytes, PMNs, monocytes, HL60, HeLa, A431, A549, CCD34Lu); conditions: tumor and healthy human cells; ref Tavano et al., 2015 [6]; read-out: EC50 for killing tumor and healthy human cells; cited from earlier work
Text: as §4

E. coli ATCC 25922 [9] = conditions: after 24 h; ±SE; § data for comparison; ref [6]; cited from earlier work
Experimental: Table 2 MICs (μM±SE; N≥4; peptides dose range: 0–64 µM) after 24 h against two Gram^+ and two Gram^− bacterial strains (§ indicates data from for comparison). | column: E. coli

[10] = system: S. epidermidis ATCC 700565; conditions: after 24 h; ±SE; § data for comparison; ref [6]; cited from earlier work
Experimental: Table 2 MICs (μM±SE; N≥4; peptides dose range: 0–64 µM) after 24 h against two Gram^+ and two Gram^− bacterial strains (§ indicates data from for comparison). | column: S. epidermis

[11] = system: S. aureus, ATCC BAA-44 (methicillin-resistant strain); conditions: after 24 h; ±SE; § data for comparison; ref [6]; cited from earlier work
Experimental: Table 2 MICs (μM±SE; N≥4; peptides dose range: 0–64 µM) after 24 h against two Gram^+ and two Gram^− bacterial strains (§ indicates data from for comparison). | column: S. aureus

P. aeruginosa ATCC 25668 [12] = conditions: after 24 h; ±SE; § data for comparison; ref [6]; cited from earlier work
Experimental: Table 2 MICs (μM±SE; N≥4; peptides dose range: 0–64 µM) after 24 h against two Gram^+ and two Gram^− bacterial strains (§ indicates data from for comparison). | column: P. aeruginosa

Erythrocytes = assay: Hemolytic activity (hemoglobin release); format: cell-based; conditions: erythrocytes treated 24 h, hemoglobin release read spectrophotometrically; in words
Experimental: Fig. 7 Hemolytic activity of trichogin and its analogs. Erythrocytes were treated for 24 h with different concentration of peptides, centrifuged and hemoglobin release was measured spectrophotometrically. Hemolysis is expressed as percentage relative to positive control (erythrocytes treated with distilled water). § Indicates data from for comparison.

HeLa cells [13] = assay: Cytotoxicity on HeLa cells, MTS/LDH; format: cell-based, human; conditions: 24 h, in words
Experimental: as §2, §3

[14] = system: Gram^− and Gram^+ bacteria; assay: Antibacterial activity, all strains taken together; format: cell-based; conditions: additional U at position 6 or U1 replaced with L; in words
Experimental: as §1

Compound	MIC S. aureus [1] [µM]	cytotoxicity compared with trichogin or the corresponding analog [2]	type and extent of HeLa cell death, PI/Annexin V labeling (HeLa cells [3])	MIC S. epidermis [4] [µM]	MIC E. coli (E. coli ATCC 25922 [5]) [µM]	MIC P. aeruginosa (P. aeruginosa ATCC 25668 [6]) [µM]	antibacterial effects (none up to the stated concentration) [7] [µM]	EC50 [8] [µM]	MIC E. coli (E. coli ATCC 25922 [9]) [µM]	MIC S. epidermis [10] [µM]	MIC S. aureus [11] [µM]	MIC P. aeruginosa (P. aeruginosa ATCC 25668 [12]) [µM]	hemolytic effect (Erythrocytes)	toxicity to HeLa cells compared with trichogin (HeLa cells [13])	antibacterial activity compared with the K-containing analogs [14]
CCCCCCCC(=O)N[C@@H](CC(C)C)C(=O)NCC(=O)N[C@@H](CC(C)C)C(=O)NC(C)(C)C(=O)NCC(=O)NCC(=O)N[C@@H](CC(C)C)C(=O)NC(C)(C)C(=O)NCC(=O)N[C@H](C(=O)N[C@H](CO)CC(C)C)[C@@H](C)CC [L1] (Octanoyl-LGL[Aib]GGL[Aib]GI[Leu(ol)])	32 ± 0 (≈ 35 µg/mL)	weakly affected	as effective as trichogin in killing HeLa cells	>64	>64	>64									
Oc-UGLUGGLUGILol [GA IV, trichogin GA IV, lipopeptaibol trichogin, Oc-UGLUGGLUGILol]							> 64	4 to 5	>64	>64	>64	>64	weakly hemolytic		
CCCCCCCC(=O)NC(C)(C)C(=O)NCC(=O)N[C@@H](CC(C)C)C(=O)NC(C)(C)C(=O)N[C@@H](CCCCN)C(=O)NC(C)(C)C(=O)N[C@@H](CC(C)C)C(=O)NC(C)(C)C(=O)NCC(=O)N[C@H](C(=O)N[C@H](CO)CC(C)C)[C@@H](C)CC [K5U6] (Octanoyl-[Aib]GL[Aib]K[Aib]L[Aib]GI[Leu(ol)])	3.8 ± 2.4 (≈ 4.43 µg/mL)	increased cytotoxicity	predominantly a late apoptotic phenotype but also significant necrosis	2.4 ± 0.9 (≈ 2.8 µg/mL)	>64	>64								significantly more effective in killing HeLa cells	failed to increase the antibacterial activity
